From patent publication US20230135729A1, “COMPOUND WITH ANTI-SPORE ACTIVITY AND PHARMACEUTICAL COMPOSITION THEREOF” (priority 2020, published 2023)
Values after ≈ are worked out from the molar mass of the structure shown. Where two headings read alike, the source gives them in different places.

Tests used:
Type in all cases: cell-based
[1] = test system: spores of ATCC 43255 strain; test: Inhibition of germination of C. difficile spores (MIC), strain ATCC 43255; conditions: Clostridioides difficile, ATCC43255, 1 h, read-out: MIC (minimum concentration that completely inhibits spore germination)
Method in brief: (§1)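 Germination was followed as the drop in OD580 over 60 min at 37° C in BHIS after adding sodium taurocholate to spores premixed with compound. Spores were first heat-activated (65° C, 30 min) and washed free of self-germinating spores. The inhibition rate was calculated against germinant and non-germinant controls.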

[2] = test system: spores of ATCC BBA1870 strain; test: Inhibition of germination of C. difficile spores (MIC), strain ATCC BBA1870; conditions: Clostridioides difficile, ATCCBBA1870STRAIN, 1 h, read-out: MIC (minimum concentration that completely inhibits spore germination)
Method in brief: as §1

[3] = test system: spores of ATCC 630 strain; test: Inhibition of germination of C. difficile spores (MIC), strain ATCC 630; conditions: Clostridioides difficile, ATCC630, 1 h, read-out: MIC (minimum concentration that completely inhibits spore germination)
Method in brief: as §1

[4] = strain 43255, sodium taurocholate as germinant, BHIS medium, 37° C., OD580 for 60 min
[5] = strain 1870, sodium taurocholate as germinant, BHIS medium, 37° C., OD580 for 60 min
[6] = strain 630, sodium taurocholate as germinant, BHIS medium, 37° C., OD580 for 60 min

Compound | MIC [1, 4] [µM] | MIC [2, 5] [µM] | MIC [3, 6] [µM] | MIC [1] [µM] | MIC [2] [µM] | MIC [3] [µM]
CCCCCCCC(NC(=O)C[C@@H](C)[C@H]1CC[C@H]2[C@@H]3C(=O)C[C@@H]4CC(=O)CC[C@]4(C)[C@H]3CC[C@]12C)c1cccs1 (stereo partly drawn) [Compound I-45] | > 256 | > 256 | > 256 | – | – | –
CC(C)[C@@H](NC(=O)C[C@@H](C)[C@H]1CC[C@H]2[C@@H]3[C@H](OC(=O)CCCCCCC(=O)O)C[C@@H]4CC(=O)CC[C@]4(C)[C@H]3CC[C@]12C)c1ccc(Br)s1 [Compound I-190] | 0.25 (≈ 0.187 µg/mL) | 0.25 (≈ 0.187 µg/mL) | 0.25 (≈ 0.187 µg/mL) | – | – | –
CC[C@H](NC(=O)C[C@@H](C)[C@H]1CC[C@H]2[C@@H]3C[C@H](O)[C@@H]4CC(=O)CC[C@]4(C)[C@H]3CC[C@]12C)c1ccc(Cl)s1 [Compound I-129] | 2 (≈ 1.07 µg/mL) | 4 (≈ 2.14 µg/mL) | 2 (≈ 1.07 µg/mL) | – | – | –
C[C@H](CC(=O)NCC1CC1)[C@H]1CC[C@H]2[C@@H]3[C@H](O)C[C@@H]4C[C@H](O)CC[C@]4(C)[C@H]3CC[C@]12C [Compound I-1] | 32 (≈ 13.8 µg/mL) | 32 (≈ 13.8 µg/mL) | 32 (≈ 13.8 µg/mL) | – | – | –
CC(=O)O[C@@H]1CC2=CC(=O)C=C[C@]2(C)[C@H]2CC[C@]3(C)[C@@H]([C@H](C)CC(=O)N[C@@H](c4ccc(Br)s4)C(C)C)CC[C@H]3[C@H]12 [I-160 -1] | 0.5 (≈ 0.315 µg/mL) | 0.5 (≈ 0.315 µg/mL) | 0.5 (≈ 0.315 µg/mL) | – | – | –
C[C@H](CC(=O)NCC1CC1)[C@H]1CC[C@H]2[C@@H]3[C@@H](O)C[C@@H]4C[C@H](O)CC[C@]4(C)[C@H]3CC[C@]12C [Compound I-10] | 32 (≈ 13.8 µg/mL) | 32 (≈ 13.8 µg/mL) | 32 (≈ 13.8 µg/mL) | – | – | –
CC[C@@H](NC(=O)C[C@@H](C)[C@H]1CC[C@H]2[C@@H]3[C@H](O)C[C@@H]4CC(=O)CC[C@]4(C)[C@H]3CC[C@]12C)c1ccc(Br)s1 [Compound I-91] | 0.25 (≈ 0.145 µg/mL) | 0.25 (≈ 0.145 µg/mL) | 0.25 (≈ 0.145 µg/mL) | – | – | –
CC[C@@H](NC(=O)C[C@@H](C)[C@H]1CC[C@H]2[C@@H]3[C@H](OC(=O)CCC(=O)O)C[C@@H]4CC(=O)CC[C@]4(C)[C@H]3CC[C@]12C)c1ccc(Cl)s1 [Compound I-179] | 2 (≈ 1.27 µg/mL) | 2 (≈ 1.27 µg/mL) | 2 (≈ 1.27 µg/mL) | – | – | –
CC[C@@H](NC(=O)C[C@@H](C)[C@H]1CC[C@H]2[C@@H]3[C@H](O)[C@H](O)[C@@H]4C[C@H](O)CC[C@]4(C)[C@H]3CC[C@]12C)c1ccc(Cl)s1 [Compound I-117] | 8 (≈ 4.42 µg/mL) | 8 (≈ 4.42 µg/mL) | 4 (≈ 2.21 µg/mL) | – | – | –
CC[C@@H](NC(=O)C[C@@H](C)[C@H]1CC[C@H]2[C@@H]3[C@H](OP(=O)(O)O)C[C@@H]4CC(=O)CC[C@]4(C)[C@H]3CC[C@]12C)c1ccc(Cl)s1 [Compound I-191] | 64 (≈ 39.3 µg/mL) | 64 (≈ 39.3 µg/mL) | 64 (≈ 39.3 µg/mL) | – | – | –
CC(C)[C@H](NC(=O)C[C@@H](C)[C@H]1CC[C@H]2[C@@H]3[C@H](O)[C@H](O)[C@@H]4C[C@H](O)CC[C@]4(C)[C@H]3CC[C@]12C)c1ccc(Br)s1 [Compound I-121] | > 256 | > 256 | > 256 | – | – | –
CCC(NC(=O)C[C@@H](C)[C@H]1CC[C@H]2[C@@H]3[C@H](O)C[C@@H]4CC(=O)CC[C@]4(C)[C@H]3CC[C@]12C)c1ccc(Br)s1 (stereo partly drawn) [Compound I-89] | 0.5 (≈ 0.289 µg/mL) | 0.5 (≈ 0.289 µg/mL) | 0.5 (≈ 0.289 µg/mL) | – | – | –
CC[C@@H](NC(=O)C[C@@H](C)[C@H]1CC[C@H]2[C@@H]3[C@H](O)[C@H](O)[C@@H]4CC(=O)CC[C@]4(C)[C@H]3CC[C@]12C)c1ccc(Br)s1 [Compound I-124] | 64 (≈ 38.1 µg/mL) | 64 (≈ 38.1 µg/mL) | 64 (≈ 38.1 µg/mL) | – | – | –
CC(C)[C@@H](NC(=O)C[C@@H](C)[C@H]1CC[C@H]2[C@@H]3C(=O)C[C@@H]4CC(=O)CC[C@]4(C)[C@H]3CC[C@]12C)c1ccc(Br)s1 [Compound I-80] | 0.125 (≈ 0.0738 µg/mL) | 0.125 (≈ 0.0738 µg/mL) | 0.125 (≈ 0.0738 µg/mL) | – | – | –
CC(C)[C@@H](NC(=O)C[C@@H](C)[C@H]1CC[C@H]2[C@@H]3[C@H](O)CC4=CC(=O)C=C[C@]4(C)[C@H]3CC[C@]12C)c1ccc(Cl)s1 [Compound I-162-2] | 0.5 (≈ 0.272 µg/mL) | 0.5 (≈ 0.272 µg/mL) | 0.5 (≈ 0.272 µg/mL) | – | – | –
CC[C@@H](NC(=O)C[C@@H](C)[C@H]1CC[C@H]2[C@@H]3[C@H](O)C[C@@H]4CC(=O)CC[C@]4(C)[C@H]3CC[C@]12C)c1ccc(S(=O)(=O)O)s1 [Compound I-94] | 16 (≈ 9.28 µg/mL) | 8 (≈ 4.64 µg/mL) | 8 (≈ 4.64 µg/mL) | – | – | –

Compound | MIC [1, 4] [µM] | MIC [2, 5] [µM] | MIC [3, 6] [µM] | MIC [1] [µM] | MIC [2] [µM] | MIC [3] [µM]
C[C@H](CC(=O)NC(c1cccs1)C(C)(C)C)[C@H]1CC[C@H]2[C@@H]3C(=O)C[C@@H]4CC(=O)CC[C@]4(C)[C@H]3CC[C@]12C (stereo partly drawn) [Compound I-43] | 32 (≈ 16.8 µg/mL) | 64 (≈ 33.7 µg/mL) | 32 (≈ 16.8 µg/mL) | – | – | –
CC(NC(=O)C[C@@H](C)[C@H]1CC[C@H]2[C@@H]3C(=O)C[C@@H]4CC(=O)CC[C@]4(C)[C@H]3CC[C@]12C)c1ccccc1 (stereo partly drawn) [Compound I-23] | 2 (≈ 0.955 µg/mL) | 4 (≈ 1.91 µg/mL) | 2 (≈ 0.955 µg/mL) | – | – | –
C[C@H](CC(=O)NCc1ccccn1)[C@H]1CC[C@H]2[C@@H]3C(=O)C[C@@H]4CC(=O)CC[C@]4(C)[C@H]3CC[C@]12C [Compound I-65] | 128 (≈ 59.5 µg/mL) | 128 (≈ 59.5 µg/mL) | 128 (≈ 59.5 µg/mL) | – | – | –
CC(=O)O[C@@H]1C[C@@H]2CC(=O)CC[C@]2(C)[C@H]2CC[C@]3(C)[C@@H]([C@H](C)CC(=O)N[C@@H](c4ccc(Br)s4)C(C)C)CC[C@H]3[C@H]12 [Compound I-178] | 0.5 (≈ 0.317 µg/mL) | 1 (≈ 0.635 µg/mL) | 0.5 (≈ 0.317 µg/mL) | – | – | –
CC(C)[C@@H](NC(=O)C[C@@H](C)[C@H]1CC[C@H]2[C@@H]3C(=O)C[C@@H]4CC(=O)CC[C@]4(C)[C@H]3CC[C@]12C)c1ccc(C=O)s1 [Compound I-200] | 32 (≈ 17.3 µg/mL) | 32 (≈ 17.3 µg/mL) | 16 (≈ 8.64 µg/mL) | – | – | –
CC[C@@H](NC(=O)C[C@@H](C)[C@H]1CC[C@H]2[C@@H]3[C@H](OS(=O)(=O)O)C[C@@H]4CC(=O)CC[C@]4(C)[C@H]3CC[C@]12C)c1ccc(Br)s1 [Compound I-109] | 0.25 (≈ 0.165 µg/mL) | 0.5 (≈ 0.329 µg/mL) | 0.5 (≈ 0.329 µg/mL) | – | – | –
CC[C@@H](NC(=O)C[C@@H](C)[C@H]1CC[C@H]2[C@@H]3C(=O)C[C@@H]4CC(=O)CC[C@]4(C)[C@H]3CC[C@]12C)c1ccc(Br)s1 [Compound I-72] | 1 (≈ 0.577 µg/mL) | 1 (≈ 0.577 µg/mL) | 0.5 (≈ 0.288 µg/mL) | – | – | –
CC(C)C(NC(=O)C[C@@H](C)[C@H]1CC[C@H]2[C@@H]3[C@H](OS(=O)(=O)O)C[C@@H]4CC(=O)CC[C@]4(C)[C@H]3CC[C@]12C)c1ccc(Br)s1 (stereo partly drawn) [Compound I-113] | 0.5 (≈ 0.336 µg/mL) | 1 (≈ 0.673 µg/mL) | 1 (≈ 0.673 µg/mL) | – | – | –
CCC(NC(=O)C[C@@H](C)[C@H]1CC[C@H]2[C@@H]3[C@H](OS(=O)(=O)O)C[C@@H]4CC(=O)CC[C@]4(C)[C@H]3CC[C@]12C)c1ccc(Br)s1 (stereo partly drawn) [Compound I-107] | 1 (≈ 0.659 µg/mL) | 1 (≈ 0.659 µg/mL) | 1 (≈ 0.659 µg/mL) | – | – | –
CC[C@@H](NC(=O)C[C@@H](C)[C@H]1CC[C@H]2[C@@H]3[C@H](OC(C)=O)C[C@@H]4CC(=O)CC[C@]4(C)[C@H]3CC[C@]12C)c1ccc(Br)s1 [Compound I-176] | 0.5 (≈ 0.31 µg/mL) | 0.5 (≈ 0.31 µg/mL) | 0.5 (≈ 0.31 µg/mL) | – | – | –
CC[C@@H](NC(=O)C[C@@H](C)[C@H]1CC[C@H]2[C@@H]3[C@H](O)CC4=CC(=O)CC[C@]4(C)[C@H]3CC[C@]12C)c1ccc(Br)s1 [Compound I-155-2] | 0.25 (≈ 0.144 µg/mL) | 0.25 (≈ 0.144 µg/mL) | 0.25 (≈ 0.144 µg/mL) | – | – | –
CCC(NC(=O)C[C@@H](C)[C@H]1CC[C@H]2[C@@H]3[C@H](OS(=O)(=O)O)C[C@@H]4CC(=O)CC[C@]4(C)[C@H]3CC[C@]12C)c1ccc(Cl)s1 (stereo partly drawn) [Compound I-104] | 1 (≈ 0.614 µg/mL) | 1 (≈ 0.614 µg/mL) | 1 (≈ 0.614 µg/mL) | – | – | –
CC[C@@H](NC(=O)C[C@@H](C)[C@H]1CC[C@H]2[C@@H]3[C@H](O)CC4=CC(=O)CC[C@]4(C)[C@H]3CC[C@]12C)c1ccc(Cl)s1 [Compound I-157-2] | 0.5 (≈ 0.266 µg/mL) | 0.25 (≈ 0.133 µg/mL) | 0.25 (≈ 0.133 µg/mL) | – | – | –
C[C@H](CC(=O)N[C@H](C)c1cccs1)[C@H]1CC[C@H]2[C@@H]3C(=O)C[C@@H]4CC(=O)CC[C@]4(C)[C@H]3CC[C@]12C [Compound I-29] | 1 (≈ 0.484 µg/mL) | 1 (≈ 0.484 µg/mL) | 1 (≈ 0.484 µg/mL) | – | – | –
CC(C)[C@@H](NC(=O)C[C@@H](C)[C@H]1CC[C@H]2[C@@H]3[C@H](OC(=O)CCC(=O)O)C[C@@H]4CC(=O)CC[C@]4(C)[C@H]3CC[C@]12C)c1ccc(Br)s1 [Compound I-182] | 2 (≈ 1.39 µg/mL) | 2 (≈ 1.39 µg/mL) | 2 (≈ 1.39 µg/mL) | – | – | –
CC(C)[C@@H](NC(=O)C[C@@H](C)[C@H]1CC[C@H]2[C@@H]3C(=O)C[C@@H]4CC(=O)CC[C@]4(C)[C@H]3CC[C@]12C)c1ccc(N(C)C)s1 [Compound I-204] | – | – | – | 32 (≈ 17.8 µg/mL) | 32 (≈ 17.8 µg/mL) | 32 (≈ 17.8 µg/mL)
